Measured values taken from patent US20070041915A1, “Use of a biguanide derivative for protecting skin against uvb radiation” (PHARMAMENS, priority 2003, published 2007).

How the values were obtained:
[1] = tested on: Langerhans cells; experiment: Protective activity against UVB-induced immunosuppressive photo effect (depletion of Langerhans cells) on survival-maintained human skin explants, anti-CD1a labelling; type: cell-based; conditions: histology and immunolabelling of Langerhans cells 24 hours after irradiation; preventive application
Description: The purpose of this study is to evidence the protective activity of metformin against an immunosuppressive photo effect (depletion of Langerhans cells) induced by UVB radiation on a survival-maintained human skin model.
The immunosuppressive photo activity induced by UVB is, assessed by counting the number of Langerhans cells in a separated epidermis and in tissue sections after anti-CDla labelling.
27 skin explants were prepared and maintained in-survival in a culture medium. They were divided among 9 batches of three explants: three reference batches, three excipient batches and three ointment batches containing 1% metformin (formulation example 3).
3 batches (reference, excipient and ointment) were exposed to UVB radiation of 4 J/cm^2, three batches (reference, excipient and ointment) to UVB radiation of 6 J/cm^2 and the three last batches were placed in darkness during the time of irradiation.
Daily application of the ointment was 4 mg per explant for 3 days before irradiation.
Analysis of the reference and treated explants was performed 24 h after irradiation.
Anti-CDla immunolabelling of Langerhans cells was made in the separated epidermis and in tissue sections.

[2] = cited from earlier work

## CN(C)C(=N)N=C(N)N [metformin]
[1]
  protective activity against UVB: protective action
[2]; at hypoglycaemic doses
  toxicity: absence of toxicity
[2]; in vivo
  chronic toxicity: practically zero
  tolerance: good
